The source of these data is US20110086759A1, “CHEMICAL COMPOUNDS” (SYNGENTA CROP PROTECTION, INC., priority 2007, published 2011).

Holding throughout (format): in vivo
Assay [1] deals with Solanum nigrum (SOLNI). Nature of the assay: Pre-emergence biological efficacy, glasshouse pot test. As to conditions: 312 h. The procedure, abridged:
(§1)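 Standard soil, pots, sown then sprayed at day 1 with 1000 or 250 g/ha test compound. Glasshouse: 24/16 °C, 14 h photoperiod, 65% humidity, twice-daily watering. Evaluation day 13, 0–100 damage score.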

Assay [2] deals with Ipomea hederaceae (IPOHE). The assay is described as above. As to conditions: Ipomoea hederacea, 312 h. The procedure, abridged: as §1
Assay [3] concerns Setaria faberi (SETFA). The assay is described as above. Conditions: 312 h. Summed up:
as §1

For assay [4], the system named is Alopecurus myosuroides (ALOMY). The description is as above. As to conditions: 312 h. Summed up:
as §1

The test system of assay [5] is Amaranthus retoflexus (AMARE). The description is as above. Conditions: Amaranthus retroflexus, 312 h. Summed up: as §1
Assay [6] deals with Echinochloa crus-galli (ECHCG). The assay is described as above. As to conditions: 312 h. The procedure, abridged: as §1
Assay [7] relates to Solanum nigrum (SOLNI). Description: Post-emergence biological efficacy, glasshouse pot test. As to conditions: 312 h. Summed up:
(§2)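 Scored 13 days after spraying on a 0 (no damage) to 100 (total damage) scale. Treatment was a post-emergence spray at 1000 or 250 g/ha, from acetone/water 50:50 plus 0.5% Tween 20, onto 8-day-old plants in soil pots. Growth at 24/16° C, 14 h photoperiod, 65% humidity, watered twice daily.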

In assay [8] the test system is Ipomea hederaceae (IPOHE). The assay is described as above. Conditions: Ipomoea hederacea, 312 h. Summed up:
as §2

Assay [9] relates to Setaria faberi (SETFA). The assay is described as above. Conditions: 312 h. Summed up:
as §2

Assay [10] relates to Alopecurus myosuroides (ALOMY). Described as above. As to conditions: 312 h. The procedure, abridged:
as §2

Assay [11] has as its system Amaranthus retoflexus (AMARE). The assay is described as above. Conditions: Amaranthus retroflexus, 312 h. The procedure, abridged:
as §2

Assay [12] relates to Echinochloa crus-galli (ECHCG). Described as above. As to conditions: 312 h. Summed up: as §2
The mark [13] stands for this setting: pre-emergence, 1,000 g/ha, evaluated after 13 days (100=total damage; 0=no damage), read-out: Percentage damage SOLNI.
Setting [14] is: pre-emergence, 1,000 g/ha, evaluated after 13 days (100=total damage; 0=no damage), read-out: Percentage damage IPOHE.
Setting [15] is: pre-emergence, 1,000 g/ha, evaluated after 13 days (100=total damage; 0=no damage), read-out: Percentage damage SETFA.
The mark [16] stands for this setting: pre-emergence, 1,000 g/ha, evaluated after 13 days (100=total damage; 0=no damage), read-out: Percentage damage ALOMY.
The mark [17] stands for this setting: pre-emergence, 1,000 g/ha, evaluated after 13 days (100=total damage; 0=no damage), read-out: Percentage damage AMARE.
Setting [18] is: pre-emergence, 1,000 g/ha, evaluated after 13 days (100=total damage; 0=no damage), read-out: Percentage damage ECHCG.
Where [19] appears, read: post-emergence, 1,000 g/ha, evaluated after 13 days (100=total damage; 0=no damage), read-out: Percentage damage caused to weed species, SOLNI.
Setting [20] is: post-emergence, 1,000 g/ha, evaluated after 13 days (100=total damage; 0=no damage), read-out: Percentage damage caused to weed species, IPOHE.
[21] abbreviates: post-emergence, 1,000 g/ha, evaluated after 13 days (100=total damage; 0=no damage), read-out: Percentage damage caused to weed species, SETFA.
Where [22] appears, read: post-emergence, 1,000 g/ha, evaluated after 13 days (100=total damage; 0=no damage), read-out: Percentage damage caused to weed species, ALOMY.
The mark [23] stands for this setting: post-emergence, 1,000 g/ha, evaluated after 13 days (100=total damage; 0=no damage), read-out: Percentage damage caused to weed species, AMARE.
Setting [24] is: post-emergence, 1,000 g/ha, evaluated after 13 days (100=total damage; 0=no damage), read-out: Percentage damage caused to weed species, ECHCG.

Turning to `COC(=O)c1nc(C2CC2)nc(N[C@@H](CC2CCCCC2)C(=O)OC)c1Cl` [4-282 (S), 5-Chloro-4-[(1S)-2-cyclohexyl-1-methoxycarbonyl-ethylamino]-2-cyclopropyl-6-methoxycarbonyl-pyrimidine], the pest or weed control at 1000 g/ha in the assay on Solanum nigrum (SOLNI) [1] (setting [13]) turned out to be 90%; in assay [2] (setting [14]) it was 80%; in the assay with Setaria faberi (SETFA) [3] (setting [15]) it was 20%; in assay [4] (setting [16]), 10%; in [5] (setting [17]) it was 90%; in assay [6] (setting [18]), 30%. The pest or weed control at 1000 g/ha with Solanum nigrum (SOLNI) [7] (setting [19]) came to 80%; in [8] (setting [20]) it was 80%; in the assay on Setaria faberi (SETFA) [9] (setting [21]), 60%; in assay [10] (setting [22]) it was 20%; in [11] (setting [23]), 100%; in assay [12] (setting [24]), 20%.
Take `COC(=O)c1nc(C2CC2)nc(N[C@@H](Cc2ccc(Cl)cc2)C(=O)OC)c1Cl` [4-285 (S), 5-Chloro-4-[(1S)-2-(4-chlorophenyl)-1-methoxycarbonyl-ethylamino]-2-cyclopropyl-6-methoxycarbonyl-pyrimidine]: the pest or weed control at 1000 g/ha with Solanum nigrum (SOLNI) [1] (setting [13]) was 90%; in assay [2] (setting [14]) it was 70%; in the assay with Setaria faberi (SETFA) [3] (setting [15]) it was 20%; in [4] (setting [16]), 20%; in [5] (setting [17]) it was 90%; in assay [6] (setting [18]), 30%. In addition, the pest or weed control at 1000 g/ha with Solanum nigrum (SOLNI) [7] (setting [19]) was 90%; in assay [8] (setting [20]), 90%; with Setaria faberi (SETFA) [9] (setting [21]), 40%; in assay [10] (setting [22]), 20%; in assay [11] (setting [23]) it was 100%; in assay [12] (setting [24]) it was 20%.
As for `COC(=O)c1nc(C2CC2)nc(N[C@@H](Cc2cccc(C(F)(F)F)c2)C(=O)OC)c1Cl` [4-286 (S), 5-Chloro-2-cyclopropyl-6-methoxycarbonyl-4-[(1S)-1-methoxy-carbonyl-2-(3-trifluoromethyl-phenyl)-ethylamino]-pyrimidine], the pest or weed control at 1000 g/ha with Solanum nigrum (SOLNI) [1] (setting [13]) stood at 80%; in assay [2] (setting [14]), 100%; with Setaria faberi (SETFA) [3] (setting [15]), 20%; in assay [4] (setting [16]), 10%; in assay [5] (setting [17]), 90%; in assay [6] (setting [18]), 20%. The pest or weed control at 1000 g/ha in the assay with Solanum nigrum (SOLNI) [7] (setting [19]) was 80%; in assay [8] (setting [20]), 50%; with Setaria faberi (SETFA) [9] (setting [21]), 20%; in assay [10] (setting [22]) it was 10%; in assay [11] (setting [23]), 100%; in [12] (setting [24]), 10%.
For `COC(=O)c1nc(C2CC2)nc(N[C@@H](Cc2ccc(O)cc2)C(=O)OC)c1Cl` [4-287 (S), 5-Chloro-2-cyclopropyl-4-[(1S)-2-(4-hydroxyphenyl)-1-methoxycarbonyl-ethylamino]-6-methoxycarbonyl-pyrimidine], the pest or weed control at 1000 g/ha was determined as 80% in the assay with Solanum nigrum (SOLNI) [1] (setting [13]); 80% in assay [2] (setting [14]); 20% in the assay on Setaria faberi (SETFA) [3] (setting [15]); 20% in assay [4] (setting [16]); 80% in [5] (setting [17]); 10% in [6] (setting [18]). In addition, the pest or weed control at 1000 g/ha in the assay on Solanum nigrum (SOLNI) [7] (setting [19]) worked out at 80%; in [8] (setting [20]), 70%; in the assay on Setaria faberi (SETFA) [9] (setting [21]), 40%; in assay [10] (setting [22]), 20%; in assay [11] (setting [23]) it was 100%; in [12] (setting [24]) it was 60%.
In the case of `COC(=O)c1nc(C2CC2)nc(N[C@@H](Cc2ccc(OC(C)(C)C)cc2)C(=O)OC)c1Cl` [4-288 (S), 4-[(1S)-2-(4-^tButoxyphenyl)-1-methoxycarbonyl-ethylamino]-5-chloro-2-cyclopropyl-6-methoxycarbonyl-pyrimidine], the pest or weed control at 1000 g/ha in the assay with Solanum nigrum (SOLNI) [1] (setting [13]) is 40%; in [2] (setting [14]), 60%; in the assay with Setaria faberi (SETFA) [3] (setting [15]) it was 0%; in [4] (setting [16]) it was 0%; in assay [5] (setting [17]), 80%; in assay [6] (setting [18]) it was 0%. The pest or weed control at 1000 g/ha in the assay with Solanum nigrum (SOLNI) [7] (setting [19]) was determined as 80%; in assay [8] (setting [20]), 50%; in the assay with Setaria faberi (SETFA) [9] (setting [21]), 10%; in assay [10] (setting [22]) it was 10%; in assay [11] (setting [23]), 80%; in [12] (setting [24]), 0%.
As to `CCOC(=O)[C@H](CSc1ccccc1)Nc1nc(C2CC2)nc(C(=O)OC)c1Cl` [4-292 (R), 5-Chloro-2-cyclopropyl-4-[(1R)-1-ethoxycarbonyl-2-phenylthio-ethylamino]-6-methoxycarbonyl-pyrimidine], the pest or weed control at 1000 g/ha in the assay with Solanum nigrum (SOLNI) [1] (setting [13]) is 80%; in assay [2] (setting [14]), 100%; in the assay with Setaria faberi (SETFA) [3] (setting [15]) it was 10%; in assay [4] (setting [16]) it was 20%; in assay [5] (setting [17]), 100%; in assay [6] (setting [18]) it was 20%. Moreover, the pest or weed control at 1000 g/ha with Solanum nigrum (SOLNI) [7] (setting [19]) was 70%; in assay [8] (setting [20]), 60%; with Setaria faberi (SETFA) [9] (setting [21]), 50%; in assay [10] (setting [22]), 20%; in assay [11] (setting [23]), 100%; in [12] (setting [24]), 30%.
Regarding `COC(=O)c1nc(C2CC2)nc(N[C@@H](Cc2ccccc2)C(=O)OC(C)(C)C)c1Cl` [4-293 (S), 4-[(1S)-1-^tButoxycarbonyl-2-phenyl-ethylamino]-5-chloro-2-cyclopropyl-6-methoxycarbonyl-pyrimidine], the pest or weed control at 1000 g/ha with Solanum nigrum (SOLNI) [1] (pre-emergence, rate 1,000 g/ha, evaluated after 13 days (100=total damage to plant; 0=no damage), read-out: Percentage damage caused to weed species, SOLNI) is 50%; in [2] (pre-emergence, rate 1,000 g/ha, evaluated after 13 days (100=total damage to plant; 0=no damage), read-out: Percentage damage caused to weed species, IPOHE), 60%; in the assay with Setaria faberi (SETFA) [3] (pre-emergence, rate 1,000 g/ha, evaluated after 13 days (100=total damage to plant; 0=no damage), read-out: Percentage damage caused to weed species, SETFA), 0%; in [4] (pre-emergence, rate 1,000 g/ha, evaluated after 13 days (100=total damage to plant; 0=no damage), read-out: Percentage damage caused to weed species, ALOMY) it was 10%; in [5] (pre-emergence, rate 1,000 g/ha, evaluated after 13 days (100=total damage to plant; 0=no damage), read-out: Percentage damage caused to weed species, AMARE), 40%; in [6] (pre-emergence, rate 1,000 g/ha, evaluated after 13 days (100=total damage to plant; 0=no damage), read-out: Percentage damage caused to weed species, ECHCG), 20%. Moreover, the pest or weed control at 1000 g/ha in the assay on Solanum nigrum (SOLNI) [7] (Rate 1,000 g/ha, post-emergence spray, evaluated after 13 days (100=total damage to plant; 0=no damage to plant), read-out: Percentage damage caused to weed species, post-emergence, SOLNI) came out at 80%; in [8] (Rate 1,000 g/ha, post-emergence spray, evaluated after 13 days (100=total damage to plant; 0=no damage to plant), read-out: Percentage damage caused to weed species, post-emergence, IPOHE), 80%; with Setaria faberi (SETFA) [9] (Rate 1,000 g/ha, post-emergence spray, evaluated after 13 days (100=total damage to plant; 0=no damage to plant), read-out: Percentage damage caused to weed species, post-emergence, SETFA), 40%; in assay [10] (Rate 1,000 g/ha, post-emergence spray, evaluated after 13 days (100=total damage to plant; 0=no damage to plant), read-out: Percentage damage caused to weed species, post-emergence, ALOMY), 10%; in assay [11] (Rate 1,000 g/ha, post-emergence spray, evaluated after 13 days (100=total damage to plant; 0=no damage to plant), read-out: Percentage damage caused to weed species, post-emergence, AMARE), 100%; in assay [12] (Rate 1,000 g/ha, post-emergence spray, evaluated after 13 days (100=total damage to plant; 0=no damage to plant), read-out: Percentage damage caused to weed species, post-emergence, ECHCG), 20%.
